Test results as given in patent US12486254B2, “Uracil derivatives for stimulating read-through of premature termination codons” (Southern Research Institute, priority 2022, dated 2025).

The compounds below were run on W134X-CF#14 FRT (assay: Read-through of a premature termination codon, W134X-CF#14 FRT data, with G418). Details: in presence of G418.
Assay type: cell-based
Experimental: The compounds shown in Table 1 were evaluated for their ability to stimulate read-through of a premature termination codon, and their respective activities are shown in Tables 2 and 3 below.
In the case of `CCn1c(=O)c(C(=O)CN2CCCCC2C2CCC2)c(N)n(Cc2ccc(F)cc2)c1=O` (centres unmarked) [1.210], the EC50 is reported as 6.68 µM.
Compound `CCn1c(=O)c(C(=O)CN(CC(N)=O)C(C)C)c(N)n(Cc2cccs2)c1=O` [1.111] has an EC50 of 5.19 µM.
In the case of `CCn1c(=O)c(C(=O)CN2CCN(C(=O)OC(C)(C)C)CC2C(N)=O)c(N)n(Cc2ccccc2)c1=O` (centres unmarked) [1.52], the EC50 is reported as ≥ 100 µM.
Work on `CCn1c(=O)c(C(=O)CN2CCCCC2C(N)=O)c(N)n(Cc2ccc(F)c(C)c2)c1=O` (centres unmarked) [1.163] yielded an EC50 of 8.05 µM.
For `CCn1c(=O)c(C(=O)CN2CCCCC2C(N)=O)c(N)n(Cc2ccc(F)cc2Cl)c1=O` (centres unmarked) [1.173], the EC50 was 42.1 µM.
With `CCn1c(=O)c(C(=O)CN2CCCCC2C(N)=O)c(N)n(Cc2ccc(F)cc2F)c1=O` (centres unmarked) [1.146] the EC50 was 8.5 µM.
`CCn1c(=O)c(C(=O)CN2CCCC[C@@H]2C(=O)NCC(C)(C)C)c(N)n(Cc2ccccc2)c1=O` [1.157] showed an EC50 of 19.5 µM.
`CCn1c(=O)c(C(=O)CN(CCC(N)=O)C(C)C)c(N)n(Cc2ccc(F)cc2)c1=O` [1.204] showed an EC50 of 12.5 µM.
`NC(=O)C1CCCCN1CC(=O)c1c(N)n(CC2CCC2)c(=O)n(Cc2ccc(F)cc2)c1=O` (centres unmarked) [1.160] showed an EC50 of 28.4 µM.
With `Cn1c(=O)c(C(=O)CN2CCN(c3ccccc3F)CC2)c(N)n(Cc2ccccc2)c1=O` [1.43] the EC50 was 49.3 µM.
Compound `CCn1c(=O)c(C(=O)CN2CCCCC2C(=O)Nc2ccccc2)c(N)n(Cc2ccccc2)c1=O` (centres unmarked) [1.97] has an EC50 of 62.5 µM.
Compound `CCn1c(=O)c(C(=O)CN(C)CC(=O)c2c(N)n(Cc3ccccc3)c(=O)n(CC)c2=O)c(N)n(Cc2ccccc2)c1=O` [1.38] has an EC50 of 11.9 µM.
`CCn1c(=O)c(C(=O)CN2CCCC2C(=O)N2CCCCC2)c(N)n(Cc2ccccc2)c1=O` (centres unmarked) [1.122] showed an EC50 of 30.4 µM.
Work on `CCn1c(=O)c(C(=O)CN2CCCC2C(=O)NCc2ccccc2)c(N)n(Cc2ccccc2)c1=O` (centres unmarked) [1.124] yielded an EC50 of 24.1 µM.
With `CCn1c(=O)c(C(=O)CN2CCCC[C@@H]2C(=O)NCC(F)(F)F)c(N)n(Cc2ccccc2)c1=O` [1.159] the EC50 was 4.91 µM.
For `CCn1c(=O)c(C(=O)CN(CC(N)=O)C(C)C)c(N)n(Cc2ccc(F)c(OC)c2)c1=O` [1.170], the EC50 was ≥ 100 µM.
With `CCn1c(=O)c(C(=O)CN(C(C)C)C(C)C(N)=O)c(N)n(Cc2ccccc2)c1=O` (centres unmarked) [1.71] the EC50 was 70.4 µM.
`CCn1c(=O)c(C(=O)CN2CCCC[C@@H]2C(=O)NCc2cccc(F)c2)c(N)n(Cc2ccccc2)c1=O` [1.144] showed an EC50 of 9.35 µM.
In the case of `NC(=O)C1CCCCN1CC(=O)c1c(N)n(Cc2ccccc2)c(=O)n(C2CC2)c1=O` (centres unmarked) [1.45], the EC50 is reported as ≥ 100 µM.
`CCn1c(=O)c(C(=O)CN2CCCC[C@@H]2C(=O)NCc2ccc(F)cc2)c(N)n(Cc2ccccc2)c1=O` [1.155] gave an EC50 of 3.16 µM.
In the case of `Cc1ccc(Cn2c(N)c(C(=O)CN3CCCCC3C(N)=O)c(=O)n(Cc3ccc(C)cc3)c2=O)cc1` (centres unmarked) [1.114], the EC50 is reported as 18.1 µM.
`CCn1c(=O)c(C(=O)CN2CCCCC2C(=O)NCCc2ccccc2)c(N)n(Cc2ccccc2)c1=O` (centres unmarked) [1.136] gave an EC50 of 8.25 µM.
`CCn1c(=O)c(C(=O)CNc2cccc(C(N)=O)c2)c(N)n(Cc2ccc(F)cc2)c1=O` [1.208] showed an EC50 of 11.4 µM.
`CCn1c(=O)c(C(=O)CN2CCCCC2C(=O)NC(C)(C)C)c(N)n(Cc2ccccc2)c1=O` (centres unmarked) [1.79] showed an EC50 of 49.3 µM.
For `CCn1c(=O)c(C(=O)CN2CCCC2c2cccn2C)c(N)n(Cc2ccccc2)c1=O` (centres unmarked) [1.63], the EC50 was 79.9 µM.
For `Cc1cccc(Cn2c(N)c(C(=O)CN3CCCCC3C(N)=O)c(=O)n(Cc3cccc(C)c3)c2=O)c1` (centres unmarked) [1.109], the EC50 was 7.47 µM.
With `CCn1c(=O)c(C(=O)CN2CCCCC2C)c(N)n(Cc2ccc(F)cc2)c1=O` (centres unmarked) [1.200] the EC50 was 34.9 µM.
In the case of `CCN(CC)C(=O)C1CCCN1CC(=O)c1c(N)n(Cc2ccccc2)c(=O)n(CC)c1=O` (centres unmarked) [1.99], the EC50 is reported as 28.3 µM.
`CCn1c(=O)c(C(=O)CN2CCCCC2C(N)=O)c(N)n(Cc2ccc(F)cc2C)c1=O` (centres unmarked) [1.161] showed an EC50 of 13.9 µM.
`CCN(CC(=O)c1c(N)n(Cc2ccccc2)c(=O)n(CC)c1=O)CC(=O)c1c(N)n(Cc2ccccc2)c(=O)n(CC)c1=O` [1.37] gave an EC50 of 12.9 µM.
In the case of `CCn1c(=O)c(C(=O)CN2CCCC[C@@H]2C(=O)NCC(C)C)c(N)n(Cc2ccccc2)c1=O` [1.156], the EC50 is reported as 11.4 µM.
Compound `CCn1c(=O)c(C(=O)CN2CCCCC2C(N)=O)c(N)n(Cc2cccc(F)c2)c1=O` (centres unmarked) [1.134] has an EC50 of 17.4 µM.
